Experimental data from patent US20070167492A1, “Molluscicidal agents” (priority 2003, published 2007).

Experiments:
[1] = tested on: Winter wheat (Kampa race) seeds; test: Seed germination test of treated winter wheat seeds (rolled in paper); assay type: in vivo; settings: 3x50 seeds, 6 days at 22° C.
Experimental: (§1) Winter wheat (Kampa race; thousand grain weight of 51 grams) was used in an experiment to test the efficacy of the compositions of the present inventions in relation to known molluscicidal compounds. The seeds were disinfected for soil and germ moulds with 2 ml of Beret Gold (comprising 25 g/l of the fungicide fludioxonil) per kg of seed.
(§2) Sepiret® was added to all dry disinfections, and is the coating that was added to all agents of which the formulation was not suitable for coating.
Table 2 provides an overview of the amounts of diluent water and Sepiret® used for treating the wheat seeds. Table 2 further provides the quality of the coating and the percentages of germinating seeds in a seed germination test. In this test, the percentage of germination of 3×50 seeds, rolled in paper, was determined after 6 days at 22° C. (continuously) and a 16 hours light regime.

[2] = tested on: Deroceras reticulatum (grey field slug); test: Example 1: pot test, treated winter wheat seed with 5 adult slugs per pot, 14 days; assay type: in vivo
Experimental: as §1, §2
The seeds were sown in earthenware pots with an internal diameter of 20 cm and a height of 18 cm, filled with 7 cm of potting soil (Trio BV, Weesp, The Netherlands) and with a top 2 cm of white quartz sand. A total of 40 seeds was placed in each pot, in a pattern of concentric circles on top of the quartz sand, the germ facing upwards. To each pot a total of 5 adult specimens of the test slug Deroceras reticulatum (grey field slug) were added. The pots were incubated at ±15° C. with a relative humidity of ±90% and light regime of ±12 hours light/12 hours dark, without artificial lighting. The pots were not irrigated overhead. In total, 4 parallel tests were performed for each test.
Following the addition of the slugs, the number of damaged seeds was counted after 2, 3, 7, 10 and 14 days. The number of plants present (germinated and not eaten or damaged by the slugs) was determined 3, 7, 10 and 14 days after the start of the test. […] The number of dead slugs was counted 2, 3, 7, 10 and 14 days after the start of the test (but not removed). Finally, on days 3, 7, 10 and 14 after the start of the test, the number fecal pellets was counted.
The data were statistically analysed by using F-tests (α=0.05) and pair-wise Student-tests.

[3] = 2 ml formulated per kg seed, 2 days after sowing
[4] = 2 ml formulated per kg seed, 3 days after sowing
[5] = 2 ml formulated per kg seed, 7 days after sowing
[6] = 2 ml formulated per kg seed, 10 days after sowing
[7] = 2 ml formulated per kg seed, 14 days after sowing
[8] = 4 ml formulated per kg seed, 2 days after sowing
[9] = 4 ml formulated per kg seed, 3 days after sowing
[10] = 4 ml formulated per kg seed, 7 days after sowing
[11] = 4 ml formulated per kg seed, 10 days after sowing
[12] = 4 ml formulated per kg seed, 14 days after sowing
[13] = 8 ml formulated per kg seed, 2 days after sowing
[14] = 8 ml formulated per kg seed, 3 days after sowing
[15] = 8 ml formulated per kg seed, 7 days after sowing
[16] = 8 ml formulated per kg seed, 10 days after sowing
[17] = 8 ml formulated per kg seed, 14 days after sowing

## COc1cc(C=CC(=O)O)cc(OC)c1 [dimethoxycinnamic acid, 3,5-dimethoxycinnamic acid]
[1]; 2 ml formulated per kg seed
  Percentage germinated: 75%
[1]; 4 ml formulated per kg seed
  Percentage germinated: 75%
[1]; 8 ml formulated per kg seed
  Percentage germinated: 38%
[2]; 2 ml formulated per kg seed
  number of utilizable plants after 14 days: 0
  percentage of damaged seeds after 14 days: 99%
[2]; [3]
  Mean number of damaged seeds per pot: 5.0
  Mean number of dead slugs per pot: 0
[2]; [4]
  Mean number fecal pellets per pot: 66
  Mean number of damaged seeds per pot: 17.5
  Mean number of dead slugs per pot: 0
  Mean number of plants present per pot: 3.5
[2]; [5]
  Mean number fecal pellets per pot: 115
  Mean number of damaged seeds per pot: 39.5
  Mean number of dead slugs per pot: 0.3
  Mean number of plants present per pot: 0
[2]; [6]
  Mean number fecal pellets per pot: 133
  Mean number of damaged seeds per pot: 39.3
  Mean number of dead slugs per pot: 0.3
  Mean number of plants present per pot: 0
[2]; [7]
  Mean number fecal pellets per pot: 141
  Mean number of damaged seeds per pot: 39.8
  Mean number of dead slugs per pot: 0.8
  Mean number of plants present per pot: 0
[2]; 4 ml formulated per kg seed
  number of utilizable plants after 14 days: 1.5
  percentage of damaged seeds after 14 days: 87%
[2]; [8]
  Mean number of damaged seeds per pot: 4.3
  Mean number of dead slugs per pot: 0
[2]; [9]
  Mean number fecal pellets per pot: 46
  Mean number of damaged seeds per pot: 17.3
  Mean number of dead slugs per pot: 0.3
  Mean number of plants present per pot: 9.3
[2]; [10]
  Mean number fecal pellets per pot: 120
  Mean number of damaged seeds per pot: 31.8
  Mean number of dead slugs per pot: 0.3
  Mean number of plants present per pot: 1.8
[2]; [11]
  Mean number fecal pellets per pot: 138
  Mean number of damaged seeds per pot: 32.0
  Mean number of dead slugs per pot: 0.3
  Mean number of plants present per pot: 2.0
[2]; [12]
  Mean number fecal pellets per pot: 158
  Mean number of damaged seeds per pot: 34.8
  Mean number of dead slugs per pot: 1.0
  Mean number of plants present per pot: 2.0
[2]; 8 ml formulated per kg seed
  number of utilizable plants after 14 days: 1.0
  percentage of damaged seeds after 14 days: 84%
[2]; [13]
  Mean number of damaged seeds per pot: 1.8
  Mean number of dead slugs per pot: 0
[2]; [14]
  Mean number fecal pellets per pot: 60
  Mean number of damaged seeds per pot: 13.0
  Mean number of dead slugs per pot: 0
  Mean number of plants present per pot: 1.5
[2]; [15]
  Mean number fecal pellets per pot: 106
  Mean number of damaged seeds per pot: 30.3
  Mean number of dead slugs per pot: 0
  Mean number of plants present per pot: 1.0
[2]; [16]
  Mean number fecal pellets per pot: 150
  Mean number of damaged seeds per pot: 31.5
  Mean number of dead slugs per pot: 0
  Mean number of plants present per pot: 1.5
[2]; [17]
  Mean number fecal pellets per pot: 158
  Mean number of damaged seeds per pot: 33.8
  Mean number of dead slugs per pot: 0
  Mean number of plants present per pot: 1.5
[2]; Example 1, dosages tested
  differences in the number of damaged seeds: did not result in significant differences
[2]; Example 1, winter wheat seed treatment, dosages tested
  protection / slug controlling effect (conclusion): no slug controlling effect
